Measurements reported in ChEMBL document CHEMBL1201862, “PubChem BioAssay data set” (2004).
Several values for one entry are separate records, joined by “and”; a condition that tells them apart may be missing. Equal values may be shown once. Activity calls are given as the source filed them.

Key:
Cytochrome P450 2C9 = Cytochrome P450 2C9 (Homo sapiens, UniProt P11712)
Cytochrome P450 1A2 = biological target: T1, Cytochrome P450 1A2 (Homo sapiens, UniProt P05177);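 further: PubChem cytochrome P450 panel assay, CYP1A2 panel member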
T1 sequence (P05177 whole entry): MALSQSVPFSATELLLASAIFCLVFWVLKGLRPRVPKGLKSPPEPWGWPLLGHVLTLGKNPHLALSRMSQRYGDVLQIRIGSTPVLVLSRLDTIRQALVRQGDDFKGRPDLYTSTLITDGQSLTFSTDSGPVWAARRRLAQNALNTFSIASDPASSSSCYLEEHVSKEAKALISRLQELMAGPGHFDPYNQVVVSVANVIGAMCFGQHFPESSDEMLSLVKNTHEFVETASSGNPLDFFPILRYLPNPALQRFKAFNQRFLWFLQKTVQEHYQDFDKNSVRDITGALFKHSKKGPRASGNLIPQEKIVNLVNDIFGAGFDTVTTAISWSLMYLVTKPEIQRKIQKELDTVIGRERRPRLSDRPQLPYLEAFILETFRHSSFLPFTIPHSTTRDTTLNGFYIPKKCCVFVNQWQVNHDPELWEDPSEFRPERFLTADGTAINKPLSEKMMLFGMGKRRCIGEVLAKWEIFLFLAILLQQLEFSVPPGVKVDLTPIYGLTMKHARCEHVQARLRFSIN

[1] = biological target: T2, Calpain-2 catalytic subunit (Sus scrofa, UniProt P43367); experiment: pig calpain II inhibitor potency, dose response, biochemical, fluorogenic peptide substrate (AID 1420); assay type: functional
T2 sequence (P43367 whole entry): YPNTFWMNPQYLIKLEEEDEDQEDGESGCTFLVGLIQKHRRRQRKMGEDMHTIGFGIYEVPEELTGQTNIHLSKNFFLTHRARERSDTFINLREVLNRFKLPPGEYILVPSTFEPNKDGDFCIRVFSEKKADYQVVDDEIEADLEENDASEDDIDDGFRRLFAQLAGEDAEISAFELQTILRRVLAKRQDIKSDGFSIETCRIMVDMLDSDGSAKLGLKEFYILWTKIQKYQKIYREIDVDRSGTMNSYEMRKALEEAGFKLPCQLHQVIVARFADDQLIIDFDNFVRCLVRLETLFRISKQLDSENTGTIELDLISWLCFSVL

Cytochrome P450 3A4 = Cytochrome P450 3A4 (Homo sapiens, UniProt P08684);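 further: CYP3A4 tested as one member of a cytochrome P450 panel screen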
[2] = biological target: T3, Polyadenylate-binding protein 1 (Homo sapiens, UniProt P11940); experiment: PABP1 MLLE–PAM2 binding inhibitor potency, dose response, biochemical, fluorescence polarization, FITC-PAM2 peptide (AID 602259); assay type: functional; conditions: read-out: IC50_Mean
[3] = biological target: T3, Polyadenylate-binding protein 1; experiment: PABP1 MLLE–PAM2 interaction inhibitors, dose response, miRNA deadenylation inhibitor project, biochemical, fluorescence polarization, Cy5-PAM2 peptide, secondary (AID 602260); assay type: functional; conditions: read-out: IC50_Mean
Protein skinhead-1 = biological target: T4, Protein skinhead-1 (Caenorhabditis elegans, UniProt P34707); assay type: functional
T4 sequence (P34707 whole entry): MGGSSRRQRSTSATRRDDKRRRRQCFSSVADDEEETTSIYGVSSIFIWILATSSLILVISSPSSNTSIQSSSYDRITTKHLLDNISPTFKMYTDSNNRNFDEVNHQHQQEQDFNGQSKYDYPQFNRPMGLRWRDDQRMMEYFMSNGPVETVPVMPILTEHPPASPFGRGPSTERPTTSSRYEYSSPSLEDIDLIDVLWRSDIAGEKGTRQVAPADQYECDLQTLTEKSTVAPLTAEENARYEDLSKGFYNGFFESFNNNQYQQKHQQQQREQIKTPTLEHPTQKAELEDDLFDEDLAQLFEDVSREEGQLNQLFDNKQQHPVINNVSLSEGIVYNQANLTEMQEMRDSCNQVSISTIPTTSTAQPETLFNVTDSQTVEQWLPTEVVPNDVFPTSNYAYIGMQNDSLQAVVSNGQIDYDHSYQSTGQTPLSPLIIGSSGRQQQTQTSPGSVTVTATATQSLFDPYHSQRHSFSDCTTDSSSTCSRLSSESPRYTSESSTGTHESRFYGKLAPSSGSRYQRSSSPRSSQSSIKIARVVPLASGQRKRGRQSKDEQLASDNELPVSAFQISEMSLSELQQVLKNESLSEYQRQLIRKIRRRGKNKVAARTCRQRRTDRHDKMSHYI

[4] = biological target: T5, Short transient receptor potential channel 4 (Mus musculus, UniProt Q9QUQ5); experiment: mouse TRPC4 channel inhibitors, dose response, cell-based, HEK293 TRPC4/mu-opioid, Fluo-4 calcium (AID 434942); assay type: functional;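 further: potency of inhibitors blocking the TRPC4 calcium response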
T5 sequence (Q9QUQ5 whole entry): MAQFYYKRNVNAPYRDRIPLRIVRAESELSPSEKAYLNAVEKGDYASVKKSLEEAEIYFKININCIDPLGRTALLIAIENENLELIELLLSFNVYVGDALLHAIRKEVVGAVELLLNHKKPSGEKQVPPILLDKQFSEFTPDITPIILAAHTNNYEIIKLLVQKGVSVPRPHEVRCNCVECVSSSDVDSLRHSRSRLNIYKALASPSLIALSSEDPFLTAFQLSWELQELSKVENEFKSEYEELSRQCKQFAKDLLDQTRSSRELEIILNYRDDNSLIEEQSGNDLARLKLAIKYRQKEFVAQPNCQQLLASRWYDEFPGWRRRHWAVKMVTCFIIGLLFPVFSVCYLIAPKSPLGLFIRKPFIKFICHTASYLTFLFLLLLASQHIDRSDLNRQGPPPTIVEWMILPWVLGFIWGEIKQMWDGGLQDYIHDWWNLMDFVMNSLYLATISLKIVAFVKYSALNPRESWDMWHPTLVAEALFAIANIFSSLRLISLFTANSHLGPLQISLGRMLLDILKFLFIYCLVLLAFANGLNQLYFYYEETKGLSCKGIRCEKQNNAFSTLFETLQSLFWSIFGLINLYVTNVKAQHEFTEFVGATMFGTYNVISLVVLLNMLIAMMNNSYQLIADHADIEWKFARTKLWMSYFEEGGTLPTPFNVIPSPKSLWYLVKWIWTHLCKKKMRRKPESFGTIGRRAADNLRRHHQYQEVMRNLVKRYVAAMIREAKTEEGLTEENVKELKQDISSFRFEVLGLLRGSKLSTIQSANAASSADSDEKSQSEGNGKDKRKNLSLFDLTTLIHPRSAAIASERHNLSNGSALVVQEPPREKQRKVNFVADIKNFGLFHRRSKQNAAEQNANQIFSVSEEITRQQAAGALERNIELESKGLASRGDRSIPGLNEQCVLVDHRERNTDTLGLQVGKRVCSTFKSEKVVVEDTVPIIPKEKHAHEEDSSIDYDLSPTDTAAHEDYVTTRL

Cytochrome P450 2C19 = Cytochrome P450 2C19 (Homo sapiens, UniProt P33261); experiment: Cytochrome panel assay with activity outcomes. Panel member name: p450-cyp2c19 Compounds with AC50 equal or less than 10 uM are considered active; assay type: functional
cells = assay type: functional
[5] = THP-1 cell cytotoxicity, dose response, cytotoxicity control for non-replicating M. tuberculosis project (AID 489025); assay type: functional
[6] = Vero E6 cell cytotoxicity, dose response, cytotoxicity control for non-replicating M. tuberculosis project, secondary assay (AID 492998); assay type: functional, VeroE6; conditions: Vero C1008
[7] = biological target: Luciferin 4-monooxygenase (Photinus pyralis, UniProt P08659); experiment: firefly luciferase enzyme inhibitors, dose response, biochemical, luminescence (AID 1891)
[8] = biological target: Heat shock protein HSP 90-alpha (Homo sapiens, UniProt P07900); assay type: functional, organism-based
[9] = Luminescence Cell-Based Dose Confirmation HTS to Identify Inhibitors of Platelet Dense Granule Release. [Related pubchem assays: 1663 (Primary HTS), 1678 (Summary of Project)]; assay type: functional
Vero = experiment: cells; assay type: functional; conditions: Chlorocebus sabaeus
[10] = HepG2 cell cytotoxicity, dose response, cytotoxicity control, plate reader, cherry-pick, antagonist series (AID 743416); assay type: functional, cell-based
INS1 = experiment: beta cell apoptosis inhibitors, cytokine rescue, dose response, luminescence, retest (AID 449756); assay type: functional, cell-based; conditions: Rattus norvegicus;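 further: cell death triggered by IL-1 beta plus TNF-alpha plus IFN-gamma mixture; protective hits raise ATP signal compared with cytokine alone wells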
[11] = HEK293 cell cytotoxicity, dose response, cytotoxicity control, plate reader, cherry-picked samples (AID 743446); assay type: functional, cell-based
[12] = LGR2 antagonists, dose response, cell-based, HEK293, CRE-luciferase reporter, cherry pick, set 2 (AID 743343); assay type: functional;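 further: transfected cells were stimulated with diluted bursicon conditioned medium after compound addition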
[13] = MC4R antagonists, dose response, counter-screen for LGR2 antagonist project, cell-based, plate reader, cherry pick (AID 743444); assay type: functional;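 further: transfected HEK 293 cells stimulated with alpha-MSH peptide; potency of inhibitors of the alpha-MSH evoked signal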
[14] = A549 cell cytotoxicity, dose response, cytotoxicity control, plate reader, cherry-pick, antagonist series (AID 743412); assay type: functional, cell-based
Cytochrome P450 2D6 = Cytochrome P450 2D6 (Homo sapiens, UniProt P10635);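 further: CYP2D6 member of a cytochrome P450 panel assay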
Chain of Cytochrome P450 2D6 (P10635 whole entry): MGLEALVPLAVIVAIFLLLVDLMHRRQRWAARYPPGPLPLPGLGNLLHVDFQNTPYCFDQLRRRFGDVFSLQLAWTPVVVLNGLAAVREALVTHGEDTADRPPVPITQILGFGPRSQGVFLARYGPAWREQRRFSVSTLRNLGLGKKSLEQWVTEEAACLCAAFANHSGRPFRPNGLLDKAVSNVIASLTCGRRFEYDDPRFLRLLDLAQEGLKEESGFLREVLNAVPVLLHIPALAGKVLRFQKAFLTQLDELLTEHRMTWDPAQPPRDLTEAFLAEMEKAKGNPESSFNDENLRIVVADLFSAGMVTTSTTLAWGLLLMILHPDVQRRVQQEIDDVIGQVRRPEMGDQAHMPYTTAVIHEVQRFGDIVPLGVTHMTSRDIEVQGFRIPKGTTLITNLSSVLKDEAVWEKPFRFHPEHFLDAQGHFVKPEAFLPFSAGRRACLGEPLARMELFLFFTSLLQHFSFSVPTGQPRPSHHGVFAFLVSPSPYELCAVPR

T3 sequence (P11940 whole entry): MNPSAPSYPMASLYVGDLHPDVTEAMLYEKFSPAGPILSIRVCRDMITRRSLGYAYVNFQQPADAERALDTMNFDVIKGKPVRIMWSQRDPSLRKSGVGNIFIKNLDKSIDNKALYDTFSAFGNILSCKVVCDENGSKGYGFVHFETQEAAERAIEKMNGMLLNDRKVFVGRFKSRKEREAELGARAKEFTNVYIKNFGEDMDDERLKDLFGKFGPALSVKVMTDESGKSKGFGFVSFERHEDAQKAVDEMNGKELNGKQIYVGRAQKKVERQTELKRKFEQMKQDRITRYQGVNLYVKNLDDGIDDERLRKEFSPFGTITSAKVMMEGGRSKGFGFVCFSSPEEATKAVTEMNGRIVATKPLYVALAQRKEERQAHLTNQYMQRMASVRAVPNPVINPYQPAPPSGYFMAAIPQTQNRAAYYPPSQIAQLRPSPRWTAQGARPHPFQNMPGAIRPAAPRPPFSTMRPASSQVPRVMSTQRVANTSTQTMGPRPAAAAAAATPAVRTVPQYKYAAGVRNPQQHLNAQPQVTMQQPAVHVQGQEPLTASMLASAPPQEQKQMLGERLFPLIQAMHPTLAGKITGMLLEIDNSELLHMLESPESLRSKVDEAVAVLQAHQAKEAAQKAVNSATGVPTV
Chain of Cytochrome P450 2C9 (P11712 whole entry): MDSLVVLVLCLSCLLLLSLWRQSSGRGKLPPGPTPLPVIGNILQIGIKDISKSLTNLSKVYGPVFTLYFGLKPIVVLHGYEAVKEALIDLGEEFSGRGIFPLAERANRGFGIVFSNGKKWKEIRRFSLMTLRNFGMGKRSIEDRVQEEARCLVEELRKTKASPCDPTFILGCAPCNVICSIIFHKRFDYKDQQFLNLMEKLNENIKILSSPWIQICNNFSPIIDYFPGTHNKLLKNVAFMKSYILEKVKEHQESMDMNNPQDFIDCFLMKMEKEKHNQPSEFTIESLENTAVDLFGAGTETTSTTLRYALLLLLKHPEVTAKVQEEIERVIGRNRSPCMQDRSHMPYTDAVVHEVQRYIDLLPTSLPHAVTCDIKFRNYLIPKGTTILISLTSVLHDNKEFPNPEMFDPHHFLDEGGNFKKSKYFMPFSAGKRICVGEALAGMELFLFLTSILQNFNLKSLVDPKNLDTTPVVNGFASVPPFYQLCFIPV
Chain of Cytochrome P450 2C19 (P33261 whole entry): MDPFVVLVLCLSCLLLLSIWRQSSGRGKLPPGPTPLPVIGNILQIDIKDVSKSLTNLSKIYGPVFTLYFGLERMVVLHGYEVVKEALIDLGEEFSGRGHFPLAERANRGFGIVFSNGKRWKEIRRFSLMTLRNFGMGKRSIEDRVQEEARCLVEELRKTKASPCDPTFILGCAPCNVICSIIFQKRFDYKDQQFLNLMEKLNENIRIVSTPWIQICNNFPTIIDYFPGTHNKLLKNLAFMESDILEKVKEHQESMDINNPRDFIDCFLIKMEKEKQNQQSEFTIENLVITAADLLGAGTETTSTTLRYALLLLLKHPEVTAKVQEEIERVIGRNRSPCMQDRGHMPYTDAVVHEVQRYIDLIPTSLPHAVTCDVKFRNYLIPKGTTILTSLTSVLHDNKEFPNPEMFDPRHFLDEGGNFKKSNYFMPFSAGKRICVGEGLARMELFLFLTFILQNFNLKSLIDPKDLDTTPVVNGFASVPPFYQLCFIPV
Chain of Luciferin 4-monooxygenase (P08659 whole entry): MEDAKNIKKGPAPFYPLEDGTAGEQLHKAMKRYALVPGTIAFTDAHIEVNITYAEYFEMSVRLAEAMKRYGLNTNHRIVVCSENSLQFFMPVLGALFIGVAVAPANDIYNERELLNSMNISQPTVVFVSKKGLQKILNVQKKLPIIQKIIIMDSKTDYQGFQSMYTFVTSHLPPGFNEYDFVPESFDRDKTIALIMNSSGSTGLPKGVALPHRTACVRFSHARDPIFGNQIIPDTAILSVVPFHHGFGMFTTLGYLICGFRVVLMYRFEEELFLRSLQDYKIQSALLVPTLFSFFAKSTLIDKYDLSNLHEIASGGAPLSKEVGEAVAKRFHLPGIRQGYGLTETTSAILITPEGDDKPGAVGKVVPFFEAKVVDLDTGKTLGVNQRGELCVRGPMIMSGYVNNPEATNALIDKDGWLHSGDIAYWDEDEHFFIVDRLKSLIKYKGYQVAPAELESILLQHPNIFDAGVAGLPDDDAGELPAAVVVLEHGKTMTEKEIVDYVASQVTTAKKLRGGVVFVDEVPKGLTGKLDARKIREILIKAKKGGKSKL
Chain of Cytochrome P450 3A4 (P08684 whole entry): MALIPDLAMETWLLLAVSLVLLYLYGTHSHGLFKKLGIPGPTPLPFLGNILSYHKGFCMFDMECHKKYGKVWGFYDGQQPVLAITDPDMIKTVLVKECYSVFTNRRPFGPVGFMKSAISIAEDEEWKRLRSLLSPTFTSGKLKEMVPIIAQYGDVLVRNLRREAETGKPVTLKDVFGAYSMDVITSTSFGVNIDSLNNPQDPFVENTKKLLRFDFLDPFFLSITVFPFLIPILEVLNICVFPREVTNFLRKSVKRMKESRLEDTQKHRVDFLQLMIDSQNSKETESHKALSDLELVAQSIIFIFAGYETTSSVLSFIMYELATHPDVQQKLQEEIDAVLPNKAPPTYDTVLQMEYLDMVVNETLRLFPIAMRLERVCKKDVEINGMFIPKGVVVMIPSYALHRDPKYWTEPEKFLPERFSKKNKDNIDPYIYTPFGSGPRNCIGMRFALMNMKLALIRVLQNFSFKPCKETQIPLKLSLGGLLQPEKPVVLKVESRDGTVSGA

For `Cc1ccccc1C(=O)Nc1ccc(N2CCOCC2)nc1`, the AC50 (Cytochrome P450 2C9) was “inconclusive” and the AC50 (Cytochrome P450 1A2) was 17.8 µM (inconclusive).

For `Cc1c(C#N)c(=O)oc2ccc3ccccc3c12`, the AC50 (Cytochrome P450 2C9) was “inconclusive”.

For `CCc1ccc(CNCc2cccnc2)cc1`, the IC50 [1] was 0.454 µM (not active).

With `CC(C)CN1CCCC2(CCN(C(=O)c3ccco3)CC2)C1` the AC50 (Cytochrome P450 2C9) was “inconclusive” and the AC50 (Cytochrome P450 3A4) was 31.6 µM (inconclusive).

For `O=C(CNC(=O)C12CC3CC(CC(C3)C1)C2)NC1=NCCS1`, the IC50 [2] was > 66 µM (inactive) and the IC50 [3] was > 66 µM (inactive).

With `CCOC(=O)C(CSCC(=O)c1ccc(Cl)cc1Cl)NC(=O)OC(C)(C)C` (stereo not drawn) the IC50 [2] was > 66 µM (inactive), the IC50 (Protein skinhead-1) was > 100 µM (inactive) and the IC50 [3] was > 66 µM (inactive).

For `CCOC(=O)c1c(NC(=O)C2CC(Cl)=CCC2C(=O)O)sc2c1CCCCC2` (stereo not drawn), the EC50 [4] was 6.68 µM (active).

In the case of `CC[n+]1c(/C=C(/C)SC)sc2ccccc21`, the IC50 [2] is reported as > 66 µM (inactive) and the IC50 [3] is reported as > 66 µM (inactive).

For `Cc1cc(SC(C)C(=O)Nc2c(C)n(C)n(-c3ccccc3)c2=O)nc2ccccc12` (stereo not drawn), the AC50 (Cytochrome P450 2C9) was “inconclusive” and the AC50 (Cytochrome P450 2C19; read-out: AC50) was 11.2 µM (inconclusive).

With `O=C(NC(=S)NCCC1=CCCCC1)c1ccccc1Br` the IC50 [2] was > 66 µM (inactive) and the IC50 [3] was > 66 µM (inactive).

In the case of `CN(Cc1ccccc1)C(=O)c1ccc([N+](=O)[O-])o1`, the IC50 (cells) is reported as 0.36 µM (active), the CC50 [5] is reported as > 40 µM (active) and the CC50 [6] is reported as 19.4 µM (active).

With `O=C(NN1C(=O)c2ccccc2NC1c1ccco1)c1ccc([N+](=O)[O-])cc1` (stereo not drawn) the IC50 [1] was 10.6 µM (not active).

In the case of `Cc1cc(C)c2c(N=NN3CCOCC3)[nH]nc2n1`, the EC50 [7] is reported as > 112 µM (not active), the AC50 [8] is reported as 4.4 µM (active) and the EC50 [9] is reported as > 112 µM (not active).

With `Cc1cc(NC(=O)c2ccccc2Cl)c(C(C)C)cc1O` the AC50 (Cytochrome P450 2C9) was “inconclusive”.

With `Cc1ccc2nc(NC(=O)c3ccccn3)sc2c1` the IC50 (cells) was 0.63 µM (active), the CC50 (Vero) was 11.3 µM (active) and the AC50 [10] was 9.65 µM (active). For the same compound, the CC50 [5] was 10.7 µM (active), the AC50 (INS1) was 2.19 µM (active) and the AC50 [11] was 14 µM (active). The AC50 [12] was 0.737 µM (active), the AC50 [13] was 0.582 µM (active) and the AC50 [14] was 4.99 µM (active). For the same compound, the CC50 [6] was 7.23 µM (active).

For `Cc1ccccc1C(=O)NC1CC2CCC(C1)N2Cc1ccccc1` (stereo not drawn), the EC50 [4] was 0.188 µM (active).

In the case of `Cc1c(Cl)c(S(N)(=O)=O)cc2c1N=CNS2(=O)=O`, the AC50 (Cytochrome P450 2C9) is reported as “inconclusive” and the AC50 (Cytochrome P450 2D6) is reported as 3.98 µM (inconclusive).

With `COc1ccc(/C=N/NC(=O)C2c3ccccc3Oc3ccccc32)c(OC)c1` the IC50 [1] was 10.9 µM (not active).

For `CN(C)CCCN1c2ccccc2CCc2ccc(Cl)cc21` [CLOMIPRAMINE], the AC50 (Cytochrome P450 2C9) was “inactive”, the AC50 (Cytochrome P450 2C19) was “inactive” and the AC50 (Cytochrome P450 1A2) was 15.8 µM (active) and 5.01 µM (active) and 20 µM (inconclusive).
